Like-named read-outs stand apart in the source and are kept apart here.
What was measured:
[1] = Hepatic microsomal intrinsic clearance assay; assay type: in vitro ADME; settings: liver microsomes 0.5 mg/mL, 1 μM, NADPH, 1 hour at 37° C., LLOQ 0.36 L/h/kg; for CLint scaled at 1 μM: pooled liver microsomes, pH 7.4
Experimental: Compounds (final concentration 1 μM, 1% organic) of the invention were incubated for 1 hour at 37° C., with shaking, in phosphate buffer (pH 7.4) containing commercially sourced pooled liver microsomes (final concentration 0.5 mg/mL). […] At designated time points (0, 5, 10, 20, 30 and 60 minutes) ice-cold acetonitrile containing internal standard (300 μL) was added to an incubation well to stop the reaction then mixed and centrifuged (3220 g for 20 minutes at 4° C.). Supernatant was diluted (1:4) with deionized water then analyzed by LC-MS/MS.

[2] = Hepatocyte intrinsic clearance assay; assay type: in vitro ADME, Human; settings: pooled donor, cryopreserved hepatocytes, pH 7.4; human hepatocytes 1×10^6/mL; 0.05 μM; 2 h at 37° C.
Experimental: Test compounds (final concentration 0.05 μM, 0.05% organic) were incubated for 2 h at 37° C., with shaking, in supplemented Leibovitz L-15 media (pH 7.4) containing commercially sourced, pooled donor, cryopreserved hepatocytes (final concentration 1×10^6 hepatocytes/mL). The CLint reactions (350 μL) were initiated by addition of test compound. Aliquots (25 μL) were taken at 1, 5, 10, 15, 30, 60, 90 and 120 minutes and then protein crashed with ice-cold acetonitrile containing internal standard (150 μL) then centrifuged (1960 g for 20 minutes at 4° C.). Supernatant was diluted (1:4) with deionized water then analyzed by liquid chromatography (LC)-tandem mass spectrometry (MS/MS).

[3] = Rat brain disposition after oral gavage; assay type: in vivo, male Sprague-Dawley rats; settings: male, Sprague-Dawley, oral 5 mg/kg, mean ± stdev
Experimental: Brain disposition was evaluated in male Sprague-Dawley rats (n=3, standard body weight). Briefly, test compound was formulated as a simple suspension (0.5% HPMC in water) then administered by oral gavage (10 mg/kg, 10 mL/kg or 5 mg/kg, 10 mL/kg). At the designated time point (0.5 or 1 h post dose) rats were sacrificed and terminal blood and brain samples taken. Isolated plasma and brain homogenates were extracted by standard protein precipitation in acetonitrile, containing internal standard. Diluted extracts were analyzed by liquid-chromatography coupled with tandem mass spectrometry detection (LC-MS/MS) using a bioanalytical method. Concentrations of test compound in plasma and brain were quantified against matrix matched calibration standards. The total plasma and brain concentration time data are presented in Table 4 alongside the calculated brain Kp (total brain concentration:total plasma concentration ratio).
The total brain-to-plasma partition coefficient (brain Kp) is given by the ratio of the total brain concentration and total plasma concentration of the compound according to the equation below: […]
Based on the measured rat fuplasma and fubrain values and the brain Kp the unbound brain-to-plasma partition coefficient (brain Kp,uu for each compound was calculated. The Kp,uu parameter describes the extent of brain penetration for each compound, i.e. the parameter gives a direct quantitative description of how the blood-brain barrier (BBB) handles the compounds regarding passive transport and active influx/efflux. The brain Kp,uu is given by the equation below: […]

[4] = Fraction unbound in rat plasma and brain homogenate by equilibrium dialysis; assay type: in vitro ADME, male Sprague-Dawley rat; settings: 1 μM, equilibrium dialysis 5 h at 37° C.; for fubrain (% free): rat brain homogenate; for fuplasma (% free): rat plasma
Experimental: The fraction of unbound compound in male Sprague-Dawley rat plasma (fuplasma) and brain homogenate (fubrain) were determined by equilibrium dialysis using 96-well HTD-dialysis plates with dialysis membranes (molecular weight cut off 12-14 KDa). One side of the HTD-dialysis plate was loaded with matrix (plasma or brain homogenate) and the other side with buffer (100 mM sodium phosphate buffer, pH 7.4). Test compounds were dissolved in DMSO then spiked (5 μL of 0.2 mM) into blank (995 μL) plasma or diluted brain homogenate (1:4 ratio in phosphate buffer) giving a final nominal concentration 1 μM (≤0.5% DMSO). The matrices were loaded into respective chambers and equilibrated against phosphate buffer for 5 h at 37° C. (in a humidified air incubator with 5% CO2 with shaking). Samples from both chambers (buffer and plasma or brain homogenate) were aliquoted to fresh 96-well polypropylene plates then matrix matched using an equal volume of opposite blank matrix before extraction with cold solvent (3 volumes acetonitrile) containing an appropriate bioanalytical internal standard. After centrifugation (20 min, 3200 g, 4° C.) the supernatants were diluted with appropriate volumes of water and compound concentrations were quantified by LC/MS-MS against matrix matched calibration standards. The fuplasma and fubrain were calculated according to equation 4 below.
[formula] Where [F] is the compound concentration on the buffer (receiver) side of the membrane; [T] is the compound concentration on the plasma or brain (donor) side of the membrane; D is the matrix dilution factor which is determined as D=4 for brain matrix and D=1 for plasma matrix in these assays.

[5] = brain, n=3, read-out: Total brain concentration
[6] = plasma, n=3, read-out: Total plasma concentration

| SMILES | CLint scaled at 1 μM [1] | CLint scaled at 0.05 μM [2] | Kp at 0.5 h ([3]; brain, 0.5 h, n=3) | Kp uu at 0.5 h ([3]; brain, 0.5 h, n=3) | concentration at 0.5 h ([3]; brain, 0.5 h, n=3, read-out: Total brain concentration) | concentration at 0.5 h ([3]; plasma, 0.5 h, n=3, read-out: Total plasma concentration) | fubrain (% free) [4] | fuplasma (% free) [4] | Kp at 1 h ([3]; brain, n=3) | Kp uu at 1 h ([3]; brain, n=3) | concentration at 1 h [3, 5] | concentration at 1 h [3, 6] | Hepatic microsomal CLint (L/h/kg) [1] |
| --- | --- | --- | --- | --- | --- | --- | --- | --- | --- | --- | --- | --- | --- |
| [2H]C([2H])([2H])c1c2c(nn1-c1cc(F)cnc1OC)OCCCn1nc(Cl)c3cnc(nc31)N2 (single isomer, unassigned) [Example 29, 8-Chloro-2-(5-fluoro-2-methoxypyridin-3-yl)-3-(methyl-d3)-2,4,12,13-tetrahydro-11H-5,7-(azenometheno)dipyrazolo[3,4-b:5′,1′-g][1]oxa[4,6,8]triazacycloundecine] | 21.3 mL/min/kg | 15.5 mL/min/kg | – | – | – | – | – | – | – | – | – | – | – |
| Cc1ncccc1-n1nc2c(c1C)Nc1ncc3c(Cl)nn(c3n1)CCCO2 [Example 3, 8-Chloro-3-methyl-2-(2-methylpyridin-3-yl)-2,4,12,13-tetrahydro-11H-5,7-(azenometheno)dipyrazolo[3,4-b:5′,1′-g][1]oxa[4,6,8]triazacycloundecine] | 7.17 mL/min/kg | 6 mL/min/kg | 1.1 ± 0.1 | 0.52 ± 0.06 | 414 ± 97 ng/g | 362 ± 38 ng/mL | 10.4 % free | 22.6 % free | – | – | – | – | – |
| Cc1ncc(F)cc1-n1nc2c(c1C)Nc1ncc3c(Cl)nn(c3n1)CCCO2 [Example 10, 8-Chloro-2-(5-fluoro-2-methylpyridin-3-yl)-3-methyl-2,4,12,13-tetrahydro-11H-5,7-(azenometheno)dipyrazolo[3,4-b:5′,1′-g][1]oxa[4,6,8]triazacycloundecine] | 20 mL/min/kg | 5.5 mL/min/kg | – | – | – | – | 9.3 % free | 22.7 % free | 2.2 ± 0.3 | 0.89 ± 0.14 | 524 ± 79 ng/g | 246 ± 61 ng/mL | – |
| [2H]C([2H])([2H])c1c2c(nn1-c1ccc(C)nc1C)OCCCn1nc(Cl)c3cnc(nc31)N2 [Example 25, 8-Chloro-2-(2,6-dimethylpyridin-3-yl)-3-(methyl-d3)-2,4,12,13-tetrahydro-11H-5,7-(azenometheno)dipyrazolo[3,4-b:5′,1′-g][1]oxa[4,6,8]triazacycloundecine] | < 6 mL/min/kg | 19.8 mL/min/kg | – | – | – | – | – | – | – | – | – | – | – |

The remaining lines, values ahead:

| CLint scaled at 1 μM [1] | CLint scaled at 0.05 μM [2] | Kp at 0.5 h ([3]; brain, 0.5 h, n=3) | Kp uu at 0.5 h ([3]; brain, 0.5 h, n=3) | concentration at 0.5 h ([3]; brain, 0.5 h, n=3, read-out: Total brain concentration) | concentration at 0.5 h ([3]; plasma, 0.5 h, n=3, read-out: Total plasma concentration) | fubrain (% free) [4] | fuplasma (% free) [4] | Kp at 1 h ([3]; brain, n=3) | Kp uu at 1 h ([3]; brain, n=3) | concentration at 1 h [3, 5] | concentration at 1 h [3, 6] | Hepatic microsomal CLint (L/h/kg) [1] | SMILES |
| --- | --- | --- | --- | --- | --- | --- | --- | --- | --- | --- | --- | --- | --- |
| 21 mL/min/kg | 14.3 mL/min/kg | – | – | – | – | 3.7 % free | 8.9 % free | 3 ± 0.06 | 1.22 ± 0.03 | 205 ± 21 ng/g | 69 ± 7 ng/mL | – | COc1ncc(F)cc1-n1nc2c(c1C)Nc1ncc3c(Cl)nn(c3n1)CCCO2 [Example 6, 8-Chloro-2-(5-fluoro-2-methoxypyridin-3-yl)-3-methyl-2,4,12,13-tetrahydro-11H-5,7-(azenometheno)dipyrazolo[3,4-b:5′,1′-g][1]oxa[4,6,8]triazacycloundecine] |
| – | 16.2 mL/min/kg | – | – | – | – | 7.4 % free | 10.2 % free | 1.4 ± 0.2 | 1 ± 0.12 | 906 ± 87 ng/g | 664 ± 47 ng/mL | BQL** | Cc1ccc(-n2nc3c(c2C)Nc2ncc4c(Cl)nn(c4n2)CCCO3)c(C)n1 [Example 9, 8-Chloro-2-(2,6-dimethylpyridin-3-yl)-3-methyl-2,4,12,13-tetrahydro-11H-5,7-(azenometheno)dipyrazolo[3,4-b:5′,1′-g][1]oxa[4,6,8]triazacycloundecine] |
| 12.3 mL/min/kg | < 4 mL/min/kg | – | – | – | – | 5.3 % free | 11.7 % free | 1.1 ± 0.2 | 0.51 ± 0.07 | 649 ± 99 ng/g | 586 ± 82 ng/mL | – | Cc1cnc(C)c(-n2nc3c(c2C)Nc2ncc4c(Cl)nn(c4n2)CCCO3)c1 [Example 11, 8-Chloro-2-(2,5-dimethylpyridin-3-yl)-3-methyl-2,4,12,13-tetrahydro-11H-5,7-(azenometheno)dipyrazolo[3,4-b:5′,1′-g][1]oxa[4,6,8]triazacycloundecine] |

Reference: patent US11958865B1, “Leucine-rich repeat kinase 2 (LRRK2) inhibitors” (H. Lundbeck A/S, priority 2022, dated 2024)
